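Five concentrations, 48 hours, 96-well plates. GI50 = concentration required for 50% inhibition of growth. TGI: concentration producing complete growth inhibition.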
What was measured:
Assay in all cases: DTP human tumour cell line panel, 48 h
[1] = tested on: EKVX NSCLC
[2] = tested on: HCC-2998 colon
[3] = tested on: SF-539 CNS
[4] = tested on: MALME-3M melanoma
[5] = tested on: HL-60(TB) leukemia
[6] = tested on: SN12C renal
[7] = tested on: A498 renal
[8] = tested on: A549 NSCLC
[9] = tested on: SF-268 CNS
[10] = tested on: MDA-MB-231 breast
[11] = tested on: U251 CNS
[12] = tested on: IGROV1 ovarian
[13] = tested on: KM12 colon
[14] = tested on: SW-620 colon
[15] = tested on: OVCAR-5 ovarian
[16] = tested on: HT29 colon
[17] = tested on: HS 578T breast
[18] = tested on: OVCAR-3 ovarian
[19] = tested on: NCI-H226 lung
[20] = tested on: OVCAR-4 ovarian
[21] = tested on: SK-MEL-5 melanoma
[22] = tested on: SK-MEL-28 melanoma
[23] = tested on: K-562 leukemia
[24] = tested on: CAKI-1 renal
[25] = tested on: M14 melanoma
[26] = tested on: NCI-H460 lung
[27] = tested on: RPMI-8226 leukemia
[28] = tested on: HOP-62 NSCLC
[29] = tested on: SF-295 CNS
[30] = tested on: NCI/ADR-RES ovarian
[31] = tested on: NCI-H522 lung
[32] = tested on: T-47D breast
[33] = tested on: SK-OV-3 ovarian
[34] = tested on: UO-31 renal
[35] = tested on: UACC-257 melanoma
[36] = tested on: OVCAR-8 ovarian
[37] = tested on: BT-549 breast
[38] = tested on: SK-MEL-2 melanoma
[39] = tested on: PC-3 prostate
[40] = tested on: HOP-92 NSCLC
[41] = tested on: UACC-62 melanoma
[42] = tested on: TK-10 renal
[43] = tested on: 786-0 renal
[44] = tested on: CCRF-CEM leukemia
[45] = tested on: LOX IMVI melanoma
[46] = tested on: HCT-116 colon
[47] = tested on: MOLT-4 leukemia
[48] = tested on: HCT-15 colon
[49] = tested on: MDA-MB-435
[50] = tested on: DU-145 prostate
[51] = tested on: SNB-19 CNS
[52] = tested on: COLO 205 colon
[53] = tested on: NCI-H23 lung
[54] = tested on: MCF7 breast
[55] = tested on: SR leukemia
[56] = tested on: RXF 393 renal
[57] = tested on: ACHN renal

In the case of `C/C(=C(\c1ccc(OCCN2CCCCCC2)cc1)c1ccc(OC(=O)c2ccccc2)cc1)c1ccc(Cl)cc1`, the GI50 [1] was 4.97 µM, the TGI [1] was 13.9 µM and the GI50 [2] was 2.36 µM. It also gave a TGI [2] of 7.03 µM, a GI50 [3] of 3.79 µM and a TGI [3] of 8.31 µM. It also gave a GI50 [4] of 3.6 µM, a TGI [4] of 8.72 µM and a GI50 [5] of 3.35 µM. The TGI [5] was 11.5 µM, the GI50 [6] was 4.21 µM and the TGI [6] was 9.53 µM. It also gave a GI50 [7] of 3.79 µM, a TGI [7] of 8.09 µM and a GI50 [8] of 4.16 µM. For the same compound, the TGI [8] was 10.9 µM, the GI50 [9] was 3.49 µM and the TGI [9] was 9.7 µM. For the same compound, the GI50 [10] was 4.9 µM, the TGI [10] was 9.96 µM and the GI50 [11] was 3.76 µM. It also gave a TGI [11] of 8.08 µM, a GI50 [12] of 4.36 µM and a TGI [12] of 10.7 µM. It also gave a GI50 [13] of 3.14 µM, a TGI [13] of 8.72 µM and a GI50 [14] of 4.04 µM. For the same compound, the TGI [14] was 9.42 µM, the GI50 [15] was 3.93 µM and the TGI [15] was 8.82 µM. For the same compound, the GI50 [16] was 1.28 µM, the TGI [16] was 4.57 µM and the GI50 [17] was 3.04 µM. The TGI [17] was 9.76 µM, the GI50 [18] was 4.06 µM and the TGI [18] was 8.49 µM. It also gave a GI50 [19] of 5.47 µM, a TGI [19] of 11.1 µM and a GI50 [20] of 3.6 µM. For the same compound, the TGI [20] was 9.82 µM, the GI50 [21] was 4.55 µM and the TGI [21] was 8.84 µM. For the same compound, the GI50 [22] was 4.33 µM, the TGI [22] was 9.02 µM and the GI50 [23] was 1.31 µM. For the same compound, the TGI [23] was 33.3 µM, the GI50 [24] was 3.86 µM and the TGI [24] was 9.27 µM. It also gave a GI50 [25] of 0.92 µM, a TGI [25] of 3.33 µM and a GI50 [26] of 2.5 µM. For the same compound, the TGI [26] was 7.44 µM, the GI50 [27] was 3.03 µM and the TGI [27] was 10.2 µM. The GI50 [28] was 4.35 µM, the TGI [28] was 8.95 µM and the GI50 [29] was 2.71 µM. The TGI [29] was 7.44 µM, the GI50 [30] was 4.56 µM and the TGI [30] was 11.2 µM. For the same compound, the GI50 [31] was 5.27 µM, the TGI [31] was 10.6 µM and the GI50 [32] was 1.76 µM. The TGI [32] was 7.47 µM, the GI50 [33] was 4.41 µM and the TGI [33] was 9.52 µM. It also gave a GI50 [34] of 1.61 µM, a TGI [34] of 6.17 µM and a GI50 [35] of 5.34 µM. For the same compound, the TGI [35] was 10.4 µM, the GI50 [36] was 5.15 µM and the TGI [36] was 10.5 µM. The GI50 [37] was 4.56 µM, the TGI [37] was 8.99 µM and the GI50 [38] was 5.32 µM. The TGI [38] was 10.5 µM, the GI50 [39] was 2.36 µM and the TGI [39] was 8.45 µM. It also gave a GI50 [40] of 3.57 µM, a TGI [40] of 7.8 µM and a GI50 [41] of 5.1 µM. For the same compound, the TGI [41] was 11.1 µM, the GI50 [42] was 5.14 µM and the TGI [42] was 10.8 µM. It also gave a GI50 [43] of 3.58 µM, a TGI [43] of 7.73 µM and a GI50 [44] of 4.2 µM. For the same compound, the TGI [44] was 16.4 µM, the GI50 [45] was 2.43 µM and the TGI [45] was 6.81 µM. It also gave a GI50 [46] of 1.62 µM, a TGI [46] of 6.05 µM and a GI50 [47] of 2.25 µM. For the same compound, the TGI [47] was 10.9 µM, the GI50 [48] was 1.4 µM and the TGI [48] was 5.99 µM. It also gave a GI50 [49] of 4.24 µM, a TGI [49] of 8.87 µM and a GI50 [50] of 5.41 µM. The TGI [50] was 11.3 µM, the GI50 [51] was 6.61 µM and the TGI [51] was 18.5 µM. It also gave a GI50 [52] of 2.31 µM, a TGI [52] of 7.76 µM and a GI50 [53] of 4.73 µM. The TGI [53] was 11 µM, the GI50 [54] was 0.348 µM and the TGI [54] was 5.94 µM. It also gave a GI50 [55] of 0.996 µM, a TGI [55] of 3.33 µM and a GI50 [56] of 3.71 µM. It also gave a TGI [56] of 8.18 µM, a GI50 [57] of 4.87 µM and a TGI [57] of 9.46 µM.

For `COc1ccc(/C=C2/SC(Nc3nc(-c4nc(NC5=NC(=O)/C(=C\c6ccc(OC)cc6)S5)sc4C)c(C)s3)=NC2=O)cc1`, the GI50 [1] was 0.213 µM, the TGI [1] was 2.43 µM and the GI50 [2] was 0.82 µM. It also gave a TGI [2] of 3.66 µM, a GI50 [3] of 1.36 µM and a TGI [3] of 3.95 µM. It also gave a GI50 [5] of 0.397 µM, a TGI [5] of over 21.9 µM and a GI50 [6] of 1.96 µM. It also gave a TGI [6] of 9.19 µM, a GI50 [7] of 0.806 µM and a TGI [7] of 4.22 µM. It also gave a GI50 [8] of 1.14 µM, a TGI [8] of 17.2 µM and a GI50 [9] of 2.79 µM. For the same compound, the TGI [9] was over 33.8 µM, the GI50 [10] was 1.35 µM and the TGI [10] was 7.14 µM. The GI50 [11] was 1.3 µM, the TGI [11] was 7.32 µM and the GI50 [12] was 5.26 µM. For the same compound, the TGI [12] was over 50 µM, the GI50 [13] was 0.196 µM and the TGI [13] was 5.77 µM. For the same compound, the GI50 [14] was 1.31 µM, the TGI [14] was over 50 µM and the GI50 [15] was 5.18 µM. The TGI [15] was 24.5 µM, the GI50 [16] was 1.99 µM and the TGI [16] was over 50 µM. For the same compound, the GI50 [17] was 0.288 µM, the TGI [17] was 1.61 µM and the GI50 [18] was 0.188 µM. It also gave a TGI [18] of 3.25 µM, a GI50 [19] of 4.98 µM and a TGI [19] of 24.9 µM. It also gave a GI50 [21] of 0.282 µM, a TGI [21] of 3.93 µM and a GI50 [23] of 0.631 µM. For the same compound, the TGI [23] was over 16.2 µM, the GI50 [24] was 0.368 µM and the TGI [24] was 3.16 µM. For the same compound, the GI50 [25] was 0.499 µM, the TGI [25] was 2.36 µM and the GI50 [26] was 1.4 µM. It also gave a TGI [26] of over 31.7 µM, a GI50 [27] of 0.572 µM and a TGI [27] of 3.21 µM. The GI50 [28] was 0.485 µM, the TGI [28] was 4.92 µM and the GI50 [29] was 0.255 µM. It also gave a TGI [29] of 4.97 µM, a GI50 [30] of 0.648 µM and a TGI [30] of 4.39 µM. It also gave a GI50 [31] of 2.14 µM, a TGI [31] of over 25.9 µM and a GI50 [32] of 7.52 µM. It also gave a TGI [32] of over 50 µM, a GI50 [34] of 4.27 µM and a TGI [34] of over 32.2 µM. It also gave a GI50 [35] of 2.22 µM, a TGI [35] of 15.4 µM and a GI50 [36] of 1.71 µM. The TGI [36] was 16.7 µM, the GI50 [37] was 2.23 µM and the TGI [37] was 22.2 µM. It also gave a GI50 [38] of 15.2 µM, a TGI [38] of over 50 µM and a GI50 [39] of 0.787 µM. It also gave a TGI [39] of 9.95 µM, a GI50 [40] of 6.15 µM and a TGI [40] of 19.1 µM. For the same compound, the GI50 [41] was 0.32 µM, the TGI [41] was 6.62 µM and the GI50 [42] was 0.172 µM. It also gave a TGI [42] of 0.77 µM, a GI50 [43] of 1.07 µM and a TGI [43] of 4.18 µM. For the same compound, the GI50 [44] was 1.68 µM, the TGI [44] was over 50 µM and the GI50 [45] was 0.935 µM. It also gave a TGI [45] of 9.27 µM, a GI50 [46] of 1.2 µM and a TGI [46] of 9.78 µM. For the same compound, the GI50 [47] was 8.87 µM, the TGI [47] was over 50 µM and the GI50 [48] was 0.397 µM. It also gave a TGI [48] of 7.82 µM, a GI50 [49] of 0.143 µM and a TGI [49] of 0.633 µM. For the same compound, the GI50 [50] was 2.43 µM, the TGI [50] was over 19.7 µM and the GI50 [51] was 5.81 µM. The TGI [51] was over 50 µM, the GI50 [52] was 2.42 µM and the TGI [52] was over 50 µM. It also gave a GI50 [53] of 0.944 µM, a TGI [53] of 4.97 µM and a GI50 [54] of 1.59 µM. It also gave a TGI [54] of over 30.7 µM, a GI50 [55] of 0.14 µM and a TGI [55] of over 50 µM. For the same compound, the GI50 [56] was 1.53 µM, the TGI [56] was 7.23 µM and the GI50 [57] was 0.838 µM. It also gave a TGI [57] of 9.74 µM.

— PubChem BioAssay (NCI)
